Laboratory results reported in patent publication US6818228B1 (priority 1996, dated 2004).

Columns and labels:
[1] = helium displacement
[2] = B.E.T.
[3] = Bulk density (tapped cylinder); conditions: nearly dry material before granulation

O.O.O.O.O=C([O-])CC(O)(CC(=O)[O-])C(=O)[O-].O=C([O-])CC(O)(CC(=O)[O-])C(=O)[O-].[Ca+2].[Ca+2].[Ca+2] [Pfizer calcium citrate tetrahydrate, calcium citrate tetrahydrate]
true density [1]: about 2.0 g/cc | surface area [2]: about 10 m^2/g

O=C([O-])CC(O)(CC(=O)[O-])C(=O)[O-].O=C([O-])CC(O)(CC(=O)[O-])C(=O)[O-].[Ca+2].[Ca+2].[Ca+2] [calcium citrate]
density (bulk) [3]: 1.1-1.2 g/cc | surface area as fraction of that of commercial calcium citrate tetrahydrate [2]: 1/10
